Test results from US20240368667A1, “RAPID, LABEL-FREE ANTIBIOTIC SUSCEPTIBILITY OF BACTERIA DIRECTLY FROM POSITIVE BLOOD OR BODILY FLUID/CULTURE” (priority 2021, published 2024).

Columns and labels:
P. aeruginosa 77 = assay: Microbroth dilution MIC with and without sucrose recovery; type: cell-based, Pseudomonas aeruginosa; settings: MIC given as multiple of S/I/R; for minimum inhibitory concentration (MIC), Standard: P. aeruginosa 77 recovered by standard plating; for minimum inhibitory concentration (MIC), Sucrose: P. aeruginosa 77 recovered through sucrose (Method 2)
Description: (§1) Microbroth dilution for minimum inhibitory concentrations (MIC) with and without sucrose recovery. To isolate bacteria without sucrose, culture media from positive BacT/alert FA PLUS aerobic culture bottles (bioMérieux, Durham, NC) was serially diluted and plated onto LB agar (Lennox; Sigma-Aldrich, St. Louis, MO). Bacterial suspensions were prepared by resuspending colonies in CAMHB with incubation on a MaxQ 4000 incubator shaker (Thermo Fisher Scientific, Waltham, MA) at 37° C. and ˜225 rpm for 3 hours. Bacteria recovered via Method 2 were diluted 10-fold in CAMHB. Following incubation or sucrose recovery and dilution, bacterial suspensions were adjusted to ˜0.004 OD600 with CAMHB and a 50-μL aliquot distributed to each well of a 96-well plate containing CAMHB with and without clinically relevant antibiotics (2-fold dilution series). Gram-negative plates included: ceftazidime (3rd generation cephalosporin, RPI corp., Mount Prospect, IL), cefepime (4th generation cephalosporin, Chem-Impex Int'l, Wood Dale, IL), meropenem (carbapenem, Tokyo Chemical Industry, Tokyo, Japan), levofloxacin (quinolone, Alfa Aesar, Haverhill, MA), and tobramycin (aminoglycoside, MP Biomedicals LLC, Santa Ana, CA), while S. aureus plates contained: oxacillin (beta-lactam, Sigma-Aldrich, St. Louis, MO), vancomycin (glycopeptide, Santa Cruz Biotechnology, Dallas, TX), erythromycin (macrolide, Sigma-Aldrich, St. Louis, MO), clindamycin ([…]), and ciprofloxacin (fluoroquinolone, Sigma-Aldrich, St. Louis, MO). Antibiotic plates were incubated at 37° C. for 16-20 hours (gram-negative) or 35° C. for 24 hours (S. aureus), at which time, plates were removed from the incubator and visually inspected for bacterial growth. The MIC was set at the lowest antibiotic concentration at which no growth was detected.
(§2) Influence of Sucrose on Bacterial MIC. To rule out the potential effect of sucrose exposure in bacterial antibiotic susceptibility, microbroth dilution studies were performed on bacteria recovered using standard practices (i.e. plating following positive blood culture) and through selective lysis coupled with centrifugation through the sucrose cushion (Method 2).

E. coli 79 = assay: as above; type: cell-based, Escherichia coli; settings: MIC given as multiple of S/I/R
Description: as §1, §2

| SMILES | minimum inhibitory concentration (MIC), Standard (P. aeruginosa 77) | minimum inhibitory concentration (MIC), Sucrose (P. aeruginosa 77) | minimum inhibitory concentration (MIC), Standard (E. coli 79; E. coli 79 recovered by standard plating) | minimum inhibitory concentration (MIC), Sucrose (E. coli 79; E. coli 79 recovered through sucrose (Method 2)) |
| --- | --- | --- | --- | --- |
| CC(C)(O/N=C(\C(=O)N[C@@H]1C(=O)N2C(C(=O)[O-])=C(C[n+]3ccccc3)CS[C@H]12)c1csc(N)n1)C(=O)O [Ceftazidime, ceftazidime] | ½S | ¼S |  |  |
| C[C@@H](O)[C@H]1C(=O)N2C(C(=O)O)=C(S[C@@H]3CN[C@H](C(=O)N(C)C)C3)[C@H](C)[C@H]12 [Meropenem, meropenem] | ⅛S |  |  |  |
| NC[C@H]1O[C@H](O[C@H]2[C@H](O)[C@@H](O[C@H]3O[C@H](CO)[C@@H](O)[C@H](N)[C@H]3O)[C@H](N)C[C@@H]2N)[C@H](N)C[C@@H]1O [Tobramycin, tobramycin] | ⅛S | ⅛S | ¼S | ¼S |
